Measurements taken from patent US4759928A, “Antibiotic: Treponemycin” (Washington State University Research Foundation, priority 1986, dated 1988).

Experiments:
[1] = system: dopamine β-hydroxylase; conditions: cited from earlier work
[2] = cited from earlier work
[3] = system: Streptomyces sp. isolates 275 and 124; assay: Streptomycin susceptibility; format: cell-based, Streptomyces albovinaceous
Excerpt: Streptomyces sp. isolates 124 and 275 were characterized by the methods developed by collaborators of the International Streptomyces Project for the identification of Streptomyces species (1, 7, 8, 10-14). Identification was made by using Nonomura's classification key (7) and Bergey's Manual of Determinative Bacteriology (1). The color of mature aerial mycelia was observed on OMA, potato dextrose agar, and Pridham and Gottlieb's basal agar with glucose (8). The colony color on the reverse side of the plate was observed on potato dextrose agar, OMA, and tyrosine-casein-nitrate agar. Color standards and color nomenclature were used to describe the colony color. The production of melanoid pigments was examined on peptone-iron agar, tyrosine agar, and tryptone-yeast extract broth. Carbon utilization by the organism was studied on Pridham and Gottlieb's basal agar with various carbon sources added (8).

[4] = system: Fusobacterium necrophorum; conditions: cited from earlier work
[5] = system: Bacillus subtilis and Saccharomyces cerevisiae; assay: antimicrobial activity, paper disk agar diffusion bioassay; format: cell-based

[C-]#[N+]C(C(=O)OCC(O)C(O)C(O)C(O)COC(=O)C([N+]#[C-])=C(C)C)=C(C)C (stereo not drawn) [A32390A]
inhibitor of dopamine β-hydroxylase [1]: inhibitor
antimicrobial [2]: antimicrobial compound

[H]/N=C(/N)N[C@H]1[C@H](O)[C@@H](O)[C@H](O[C@@H]2O[C@@H](C)[C@](O)(C=O)[C@H]2O[C@@H]2O[C@@H](CO)[C@H](O)[C@@H](O)[C@@H]2NC)[C@@H](N/C(N)=N\[H])[C@@H]1O [Streptomycin]
Streptomycin susceptibility ([3]; 10 μg/ml): not
Streptomycin susceptibility ([3]; 50 μg/ml): Inhibited

CC[C@H]1OC(=O)[C@H](C)[C@@H](O[C@H]2C[C@@](C)(OC)[C@@H](O)[C@H](C)O2)[C@H](C)[C@@H](O[C@@H]2O[C@H](C)C[C@H](N(C)C)[C@H]2O)[C@](C)(O)C[C@@H](C)C(=O)[C@H](C)[C@@H](O)[C@]1(C)O [erythromycin]
resistance of Fusobacterium necrophorum [4]: high levels of resistance

C[C@@H]1C[C@H](C)C[C@H](C)[C@@H](O)CC(=O)O[C@H]([C@@H]2CCC[C@H]2C(=O)O)C/C=C/C=C(/CN)[C@H](O)[C@@H](C)C1 [primary amine]
antimicrobial activity [5]: no antimicrobial activity
